Patent US8906928B2, “Substituted pyrazolo-pyrrolo-pyridine-dione compounds” (ArQule, Inc., priority 2009, dated 2014)

What was measured:
Assay type in all cases: cell-based
DLD-1 = assay: MTS assay (cell growth inhibition), DLD-1; conditions: DLD-1 cells, 72 hours incubation with test compound; concentration not given
Experimental: (§1) Cells were maintained at 37° C., 5% CO2 in DMEM media supplemented with 1% fetal bovine serum, penicillin/streptomycin and fungizone (Invitrogen). Cells were seeded into 96-well tissue culture plates at 3000 per well and cultured at 37° C. for 18 hours. Test compounds were dissolved and diluted to 300× in DMSO then diluted 1:40 in DMEM. Cells were incubated with test compounds for 72 hours followed by incubation with tetrazolium compound (3-(4,5-dimethylthiazol-2-yl)-5-(3-carboxymethoxyphenyl)-2-(4-sulfophenyl)-2H-tetrazolium, inner salt; MTS) and the electron coupling reagent, phenazine methosulfate (PMS) for 4 hours. […] The ability of compounds to inhibit cell growth in this assay is correlated with the reduction of dehydrogenase enzyme activity found in metabolically active cells. The measurement of the absorbance of the formazan was assessed using an ENVISION™ (Perkin Elmer) microplate reader at 492 nm. The calculated IC50 value is the concentration of the test compound that causes a 50% decrease in the absorbance.

Kato III = assay: MTS assay (cell growth inhibition), Kato III; conditions: Kato III cells, 72 hours incubation with test compound; concentration not given
Experimental: as §1

MDA-MB = assay: MTS assay (cell growth inhibition), MDA-MB; conditions: MDA-MB cells, 72 hours incubation with test compound; concentration not given
Experimental: as §1

NCI-H1299 = assay: MTS assay (cell growth inhibition), NCI-H1299; conditions: NCI-H1299 cells, 72 hours incubation with test compound; concentration not given
Experimental: as §1

PC-3 = assay: MTS assay (cell growth inhibition), PC-3; conditions: PC-3 cells, 72 hours incubation with test compound; concentration not given
Experimental: as §1

PACA-2 = assay: MTS assay (cell growth inhibition), PACA-2; conditions: PACA-2 cells, 72 hours incubation with test compound; concentration not given
Experimental: as §1

Structure (SMILES) | MTS CELL KILL DATA (% INHIBITION) DLD-1 (DLD-1) | MTS CELL KILL DATA (% INHIBITION) Kato III (Kato III) | MTS CELL KILL DATA (% INHIBITION) MDA-MB (MDA-MB) | MTS CELL KILL DATA (% INHIBITION) NCI-H1299 (NCI-H1299) | MTS CELL KILL DATA (% INHIBITION) PC-3 (PC-3) | MTS CELL KILL DATA (% INHIBITION) PACA-2 (PACA-2)
O=C1c2cnc3[nH]nc(-c4cncnc4)c3c2C(=O)N1CCc1ccccc1 [Example 151, 7-(2-phenylethyl)-1-pyrimidin-5-ylpyrazolo[3,4-b]pyrrolo[3,4-d]pyridine-6,8(3H,7H)-dione] | A (A = 80-100% INHIBITION) | A (A = 80-100% INHIBITION) | C (C = <50% INHIBITION) | C (C = <50% INHIBITION) | B (B = 50-79% INHIBITION) | A (A = 80-100% INHIBITION)
O=C1c2cnc3[nH]ncc3c2C(=O)N1CCc1ccncc1 [Example 36, 7-(2-pyridin-4-ylethyl)pyrazolo[3,4-b]pyrrolo[3,4-d]pyridine-6,8(3H,7H)-dione] | C (C = <50% INHIBITION) | C (C = <50% INHIBITION) | A (A = 80-100% INHIBITION) | C (C = <50% INHIBITION) | A (A = 80-100% INHIBITION) | B (B = 50-79% INHIBITION)
CC(C)(C)c1ccc(-c2n[nH]c3ncc4c(c23)C(=O)N(CCc2ccccc2)C4=O)cc1 [Example 166, 1-(4-tert-butylphenyl)-7-(2-phenylethyl)pyrazolo[3,4-b]pyrrolo[3,4-d]pyridine-6,8(3H,7H)-dione] | A (A = 80-100% INHIBITION) | C (C = <50% INHIBITION) | A (A = 80-100% INHIBITION) | C (C = <50% INHIBITION) | C (C = <50% INHIBITION) | B (B = 50-79% INHIBITION)
O=C1c2cnc3[nH]ncc3c2C(=O)N1CC1CCOC1 (stereo not drawn) [Example 85, 7-(tetrahydrofuran-3-ylmethyl)pyrazolo[3,4-b]pyrrolo[3,4-d]pyridine-6,8(3H,7H)-dione] | C (C = <50% INHIBITION) | C (C = <50% INHIBITION) | C (C = <50% INHIBITION) | C (C = <50% INHIBITION) | C (C = <50% INHIBITION) | C (C = <50% INHIBITION)
CC(CN1C(=O)c2cnc3[nH]ncc3c2C1=O)c1ccccc1 (stereo not drawn) [Example 96, 7-(2-phenylpropyl)pyrazolo[3,4-b]pyrrolo[3,4-d]pyridine-6,8(3H,7H)-dione] | C (C = <50% INHIBITION) | C (C = <50% INHIBITION) | C (C = <50% INHIBITION) | C (C = <50% INHIBITION) | C (C = <50% INHIBITION) | C (C = <50% INHIBITION)
CN(C)c1cccc(CN2C(=O)c3cnc4[nH]ncc4c3C2=O)c1 [Example 23] | C (C = <50% INHIBITION) | C (C = <50% INHIBITION) | C (C = <50% INHIBITION) | C (C = <50% INHIBITION) | C (C = <50% INHIBITION) | C (C = <50% INHIBITION)
O=C1NCCN1CCN1C(=O)c2cnc3[nH]ncc3c2C1=O [Example 6, 7-[2-(2-oxoimidazolidin-1-yl)ethyl]pyrazolo[3,4-b]pyrrolo[3,4-d]pyridine-6,8(3H,7H)-dione] | C (C = <50% INHIBITION) | A (A = 80-100% INHIBITION) | A (A = 80-100% INHIBITION) | A (A = 80-100% INHIBITION) | A (A = 80-100% INHIBITION) | C (C = <50% INHIBITION)
